Reference: publication PMC3392958, “Assay Format as a Critical Success Factor for Identification of Novel Inhibitor Chemotypes of Tissue-Nonspecific Alkaline Phosphatase from High-Throughput Screening” (Molecules, 2010)
Read-outs that look alike come from different tables or passages of the source. Blank lines part the entries; values can stand above or below the compound they belong to.

Assays:
TNAP [1] = biological target: T1, TNAP (Homo sapiens, UniProt P05186); assay: TNAP colorimetric malachite green phosphate detection (MG) assay; assay type: biochemical; settings: fresh solid samples from vendors; read-out: IC50 SAR-MG
T1 construct: made in house; host or cells: COS-1 cells, transient expression; dialyzed serum-free conditioned medium
T1 sequence (P05186 18-501 limits assumed): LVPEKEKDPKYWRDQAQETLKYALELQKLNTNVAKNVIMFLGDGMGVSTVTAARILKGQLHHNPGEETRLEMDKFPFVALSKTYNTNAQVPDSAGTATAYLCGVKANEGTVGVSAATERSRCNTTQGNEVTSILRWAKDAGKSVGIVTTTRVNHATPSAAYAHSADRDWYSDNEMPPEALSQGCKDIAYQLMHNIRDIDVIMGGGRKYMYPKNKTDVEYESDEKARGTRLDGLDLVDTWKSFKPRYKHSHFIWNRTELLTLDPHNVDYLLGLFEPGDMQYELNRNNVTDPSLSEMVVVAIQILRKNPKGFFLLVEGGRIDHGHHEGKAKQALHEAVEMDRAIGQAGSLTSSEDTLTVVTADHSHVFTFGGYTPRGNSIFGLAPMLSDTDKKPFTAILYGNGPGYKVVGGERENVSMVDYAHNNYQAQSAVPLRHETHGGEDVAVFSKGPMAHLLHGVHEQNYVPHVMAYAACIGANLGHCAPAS
Protocol: (§1) The colorimetric TNAP assay was performed as previously described with slight modifications.

TNAP [2] = biological target: T1, TNAP; assay: TNAP colorimetric assay (pNPP substrate, OD405, 1M DEA); assay type: biochemical
Protocol: as §1

human PLAP = biological target: T2, human PLAP (Homo sapiens, UniProt P05187); assay: PLAP luminescent assay (CDP-star); assay type: biochemical
T2 construct: made in house; host or cells: COS-1 cells, transient expression; dialyzed serum-free conditioned medium
T2 sequence (P05187 23-506 limits assumed): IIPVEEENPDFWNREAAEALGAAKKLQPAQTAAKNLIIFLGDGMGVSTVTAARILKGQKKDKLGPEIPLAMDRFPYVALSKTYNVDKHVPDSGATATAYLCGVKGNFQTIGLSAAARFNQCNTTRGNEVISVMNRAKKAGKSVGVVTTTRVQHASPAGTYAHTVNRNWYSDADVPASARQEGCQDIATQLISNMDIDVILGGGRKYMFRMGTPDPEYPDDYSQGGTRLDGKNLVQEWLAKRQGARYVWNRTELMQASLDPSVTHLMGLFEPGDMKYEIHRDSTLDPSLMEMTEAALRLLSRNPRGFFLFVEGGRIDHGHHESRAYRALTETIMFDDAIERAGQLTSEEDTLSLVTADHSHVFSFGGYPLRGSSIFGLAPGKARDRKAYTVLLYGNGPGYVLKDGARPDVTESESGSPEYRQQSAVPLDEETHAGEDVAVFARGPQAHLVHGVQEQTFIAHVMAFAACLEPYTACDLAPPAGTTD
Protocol: (§2) Selectivity of Primary Actives Against other Phosphatases: To assess the selectivity of compounds across the alkaline phosphatase family, luminescent assays were developed for human PLAP and human IAP with the same CDP-Star reagent.
(§3) Development of the novel luminescent TNAP assay using CDP-star substrate and detailed protocol of its application for HTS is described in more detail elsewhere. […] Briefly, the assay was 50 μM CDP-star substrate in assay buffer containing 100 mM DEA-HCl (pH 9.8), 1 mM MgCl2, and 20 μM ZnCl2. The luminescence signal was measured after a 30-min incubation at room temperature on an EnVision plate reader (PerkinElmer, Waltham, MA). […] Detailed protocols can be found in the respective AIDs, however, the final buffer conditions were 100 mM DEA, pH 9.8, 1.0 mM MgCl2, 0.02 mM ZnCl2 for both PLAP and IAP.

TNAP [3] = biological target: T1, TNAP; assay: TNAP luminescent assay (CDP-star substrate, 100 mM DEA); assay type: biochemical
Protocol: as §3

TNAP [4] = biological target: T1, TNAP; set-up: method as in PMID 19556612; settings: three DEA concentrations tested; cited from earlier work
IAP = biological target: T3, IAP (Homo sapiens, UniProt P09923); assay: IAP luminescent assay (CDP-star); assay type: biochemical
T3 construct: made in house; host or cells: COS-1 cells, transient expression; dialyzed serum-free conditioned medium
T3 sequence (P09923 20-503 limits assumed): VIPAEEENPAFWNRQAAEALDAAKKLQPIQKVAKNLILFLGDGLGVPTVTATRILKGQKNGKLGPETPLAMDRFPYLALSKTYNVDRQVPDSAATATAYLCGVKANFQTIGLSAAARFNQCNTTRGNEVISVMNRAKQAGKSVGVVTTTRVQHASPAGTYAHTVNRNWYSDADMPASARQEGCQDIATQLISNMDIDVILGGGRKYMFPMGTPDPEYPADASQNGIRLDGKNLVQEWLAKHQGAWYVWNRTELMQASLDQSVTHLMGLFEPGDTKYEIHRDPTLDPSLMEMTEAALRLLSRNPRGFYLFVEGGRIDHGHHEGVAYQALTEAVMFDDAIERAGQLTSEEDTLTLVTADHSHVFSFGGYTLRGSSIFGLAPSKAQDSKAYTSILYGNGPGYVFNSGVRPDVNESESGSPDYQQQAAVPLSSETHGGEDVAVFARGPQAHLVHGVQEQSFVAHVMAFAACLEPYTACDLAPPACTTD
Protocol: as §2, §3

[5] = compounds from MLSMR in liquid form, read-out: IC50 HTS-Color
[6] = fresh solid samples from vendors, read-out: IC50 SAR-Color
[7] = read-out: Selectivity Panel IC50 PLAP
[8] = compounds from MLSMR in liquid form, read-out: IC50 HTS-Lumi
[9] = phtalimide triazole series, read-out: IC50 TNAP- Lumi
[10] = read-out: Selectivity Panel IC50 TNAP
[11] = read-out: Selectivity Panel IC50 IAP
[12] = optimized pyrazole series, read-out: TNAP Lumi IC50
[13] = bisarylsulfonamide series, NA = inactive (up to 100 µM), read-out: TNAP-Lumi IC50
[14] = TNAP, read-out: IC50 (Figure 6, pyrazole series optimization)
[15] = luminescence-based assay, 0.1M DEA, read-out: TNAP IC50

SMILES: O=C1C2CC=CCC2C(=O)N1c1n[nH]c(Cc2ccccc2)n1 (stereo not shown) [MLS-0067142]
- IC50 (TNAP [1]): > 100000 nM
- IC50 (TNAP [2]; [5]): > 100000 nM
- IC50 (TNAP [2]; [6]): > 100000 nM
- IC50 (human PLAP; [7]): 3100 nM
- IC50 (TNAP [3]; [8]): 240 nM
- IC50 (TNAP [3]; [9]): 210 nM
- IC50 (TNAP [3]; [10]): 190 nM
- mechanism of TNAP inhibition with respect to DEA (TNAP [4]): competitive
- IC50 (IAP; phtalimide triazole series, read-out: IC50 IAP-Lumi): 540 nM
- IC50 (IAP; [11]): 540 nM

SMILES: COc1cccc(S(=O)(=O)Nc2cnc3ccccc3c2)c1 [MLS-0090844]
- reduction in TNAP potency compared with the lead structure CID-2931238 (TNAP [3]): 100 fold
- IC50 (TNAP [3]; [13]): 25700 nM

SMILES: COc1ccc(OC)c(CNc2cnc3ccccc3c2)c1 [MLS-0111667]
- activity against TNAP in vitro (TNAP [3]; luminescence-based assay): inactive

SMILES: COc1ccc(S(=O)(=O)Nc2cnc3ccccc3c2)cc1OC [MLS-0090842]
- activity against TNAP in vitro (TNAP [3]; luminescence-based assay): inactive

SMILES: COc1ccc(OC)c(S(=O)(=O)Nc2cccnc2)c1 [MLS-0068486]
- reduction in TNAP potency compared with the lead structure CID-2931238 (TNAP [3]): roughly 4 fold
- IC50 (TNAP [3]; [13]): 920 nM

SMILES: COc1ccc(C)cc1S(=O)(=O)Nc1cccnc1 [MLS-0010847]
- IC50 (TNAP [1]): 950 nM
- IC50 (TNAP [2]; [5]): 710 nM
- IC50 (TNAP [2]; [6]): 830 nM
- IC50 (human PLAP; [7]): > 100000 nM
- IC50 (TNAP [3]; [8]): 1800 nM
- IC50 (TNAP [3]; fresh solid samples from vendors, read-out: IC50 SAR-Lumi): 930 nM
- IC50 (TNAP [3]; [10]): 930 nM
- IC50 (IAP; [11]): > 100000 nM

SMILES: O=C1c2ccccc2C(=O)N1c1nc(Cc2ccccc2)n[nH]1 [MLS-0091978]
- IC50 (TNAP [3]; [9]): 670 nM

SMILES: COc1ccc(OC)c(S(=O)(=O)Nc2ccc3ncccc3c2)c1 [MLS-0111639]
- activity against TNAP in vitro (TNAP [3]; luminescence-based assay): eliminates activity

SMILES: O=C1C2C3C=CC(C3)C2C(=O)N1c1n[nH]c(CCc2ccccc2)n1 (stereo not shown) [MLS-0091982]
- IC50 (TNAP [3]; [9]): 30600 nM

Next, values leading:

- IC50 (TNAP [3]; [12]): 52 nM
SMILES: NNC(=O)c1cc(-c2ccc(Cl)cc2Cl)n[nH]1 [MLS-0146145]

- IC50 (human PLAP; catechol series, read-out: PLAP IC50): 2100 nM
- IC50 (IAP; catechol series, read-out: IAP IC50): 30200 nM
SMILES: O=C(Cn1ccnc1)c1ccc(O)c(O)c1 [Compound 1]

- IC50 (TNAP [3]; [14]): 1300 nM
- IC50 (TNAP [3]; [15]): 1330 nM
SMILES: O=C(O)c1[nH]nc2c1COc1ccccc1-2 [MLS-0004120]

- improvement in TNAP potency over parent compound (TNAP [3]; MLS-0091995 vs CID-646303, MLS-0111547 vs MLS-0004120): 3 fold
- IC50 (TNAP [3]; [14]): 500 nM
- IC50 (TNAP [3]; [15]): 480 nM
SMILES: O=C(c1[nH]nc2c1COc1ccccc1-2)N1CCCC1 [MLS-0111547]

- selectivity as inhibitor of PLAP over IAP (human PLAP; catechol series): > 25 fold
- selectivity as inhibitor of PLAP over TNAP (human PLAP; catechol series): more than 50 fold
SMILES: Cc1cnn(CC(=O)c2ccc(O)c(O)c2)c1 [MLS-0390945]

- selectivity as inhibitor of PLAP over IAP (human PLAP; catechol series): 10 fold
- selectivity as inhibitor of PLAP over TNAP (human PLAP; catechol series): 40 fold
SMILES: Cc1nc2ccccc2n1CC(=O)c1ccc(O)c(O)c1 [MLS-0315854]

- IC50 (TNAP [3]; [12]): 75 nM
SMILES: CN(C)C(=O)c1cc(-c2ccc(Cl)cc2Cl)n[nH]1 [MLS-0146148]
